According to patent US20260216198A1, “GPR35 MODULATORS” (ThirtyFiveBio Limited, priority 2023, published 2026):
pIC50: −log10 of the molar value.

target: T1, GPR35 (Homo sapiens, UniProt Q9HC97); assay: cellular GPR35 phospho-ERK HTRF assay (inhibition of lodoxamide-induced phospho-ERK signal); format: cell-based; settings: GPR35-CHO-K1-mt aequorin-Gα16 cell line; agonist lodoxamide at EC80; read-out: Activity Group (IC50, inhibition of GPR35 agonist-induced phospho-ERK signal)
T1 construct: expressed in transfected cells; host or cells: CHO-K1 cells co-expressing mitochondrial aequorin and Gα16
Source text: (§1) The functional GPR35 assay as described in the accompanying examples measures the ability of GPR35 modulators to inhibit a GPR35 agonist-induced phospho-ERK signal. This is expressed as the concentration of modulator required to reduce the phospho-ERK signal by 50 percent, i.e. the IC50; the signal window being defined as the difference between agonist plus modulator vehicle (no modulator) and agonist vehicle (no agonist) controls.
as §1, with “functional” for “functional GPR35”, “assay” for “assay as”, “described” for “described in the accompanying examples”
This assay is a cellular GPR35 phospho-ERK homogeneous time resolved fluorescence (HTRF) assay using the GPR35-CHO-K1-mt aequorin-Gα16 cell line. Upon activation of GPR35 with the agonist lodoxamide at EC80 concentration, ERK 1/2 is phosphorylated, and after lysis of the cell membrane, phospho-ERK1/2 (Thr202/Tyr204) is detected in a sandwich assay using two different specific antibodies, one labelled with Eu^3+-cryptate (donor) and the second with d2 (acceptor). When the dyes are in proximity, the excitation of the donor with a light source (laser or flash lamp) triggers a Fluorescence Resonance Energy Transfer (FRET) towards the acceptor, resulting in specific acceptor fluorescence (at 665 nm). The specific signal is directly proportional to the amount of phospho-ERK1/2 (Thr202/Tyr204) in the sample. Compounds that interfere with the levels of phospho-ERK1/2 (Thr202/Tyr204) will result in a low HTRF signal.

T1 sequence (Q9HC97 whole entry): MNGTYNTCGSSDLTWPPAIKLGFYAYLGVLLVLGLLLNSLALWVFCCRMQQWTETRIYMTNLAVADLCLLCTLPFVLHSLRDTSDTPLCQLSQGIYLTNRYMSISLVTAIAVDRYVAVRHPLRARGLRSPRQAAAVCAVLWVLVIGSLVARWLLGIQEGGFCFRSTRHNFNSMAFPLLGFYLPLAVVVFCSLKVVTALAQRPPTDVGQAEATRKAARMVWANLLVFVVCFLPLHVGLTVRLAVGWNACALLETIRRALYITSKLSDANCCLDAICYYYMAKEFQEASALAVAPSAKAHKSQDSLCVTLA

pIC50	Structure (SMILES)
> 6.00	O=C(Nc1ccc(OCCc2ccccc2)cc1)c1cccc(-c2ccc(O)c(C(=O)O)c2)c1 [Example 1, 4-Hydroxy-3′-((4-phenethoxyphenyl)carbamoyl)-[1,1′-biphenyl]-3-carboxylic acid]
> 6.00	O=C(Nc1ccc(OCCc2ccccc2)cc1)c1cccc(-c2cnc(C3CC3)c(C(=O)O)c2)c1 [Example 2, 2-Cyclopropyl-5-(3-((4-phenethoxyphenyl)carbamoyl)phenyl)nicotinic acid]
> 6.00	O=C(Nc1ccc(OCCc2ccccc2)cc1)c1cccc(-c2c[nH]c(=O)c(C(=O)O)c2)c1 [Example 3, 2-oxo-5-(3-((4-Phenethoxyphenyl)carbamoyl)phenyl)-1,2-dihydropyridine-3-carboxylic acid]
> 6.00	O=C(Nc1ccc(OCCc2ccccc2)cc1)c1cccc(-c2cnc(C(F)(F)F)c(C(=O)O)c2)c1 [Example 4, 5-(3-((4-Phenethoxyphenyl)carbamoyl)phenyl)-2-(trifluoromethyl)nicotinic acid]
> 6.00	O=C(O)c1cncc(-c2cccc(C(=O)Nc3ccc(OCCc4ccccc4)cc3)c2)c1 [Example 5, 5-(3-((4-Phenethoxyphenyl)carbamoyl)phenyl)nicotinic acid]
> 6.00	O=C(O)Cc1cncc(-c2cccc(C(=O)Nc3ccc(OCCc4ccccc4)cc3)c2)c1 [Example 6, 2-(5-(3-((4-Phenethoxyphenyl)carbamoyl)phenyl)pyridin-3-yl)acetic acid]
> 6.00	O=C(Nc1ccc(OCCc2ccccc2)cc1)c1cccc(-c2ccnc(C(=O)O)n2)c1 [Example 7, 4-(3-((4-Phenethoxyphenyl)carbamoyl)phenyl)pyrimidine-2-carboxylic acid]
> 6.00	Cc1ccc(-c2cccc(C(=O)Nc3ccc(OCCc4ccccc4)cc3)c2)nc1C(=O)O [Example 8, 3-Methyl-6-(3-((4-phenethoxyphenyl)carbamoyl)phenyl)picolinic acid]
> 6.00	Nc1ncc(-c2cccc(C(=O)Nc3ccc(OCCc4ccccc4)cc3)c2)nc1C(=O)O [Example 9, 3-Amino-6-(3-((4-phenethoxyphenyl)carbamoyl)phenyl)pyrazine-2-carboxylic acid]
> 6.00	Cc1ncc(-c2cccc(C(=O)Nc3ccc(OCCc4ccccc4)cc3)c2)nc1C(=O)O [Example 10, 3-Methyl-6-(3-((4-phenethoxyphenyl)carbamoyl)phenyl)pyrazine-2-carboxylic acid]
> 6.00	O=C(Nc1ccc(OCCc2ccccc2)cc1)c1cccc(-c2cnc(F)c(C(=O)O)c2)c1 [Example 11, 2-Fluoro-5-(3-((4-phenethoxyphenyl)carbamoyl)phenyl)nicotinic acid]
> 6.00	Nc1ncc(-c2cccc(C(=O)Nc3ccc(OCCc4ccccc4)cc3)c2)cc1C(=O)O [Example 12, 2-Amino-5-(3-((4-phenethoxyphenyl)carbamoyl)phenyl)nicotinic acid]
> 6.00	O=C(O)c1ccnc(-c2cccc(C(=O)Nc3ccc(OCCc4ccccc4)cc3)c2)c1 [Example 13, 2-(3-((4-Phenethoxyphenyl)carbamoyl)phenyl)isonicotinic acid]
> 6.00	O=C(Nc1ccc(OCCc2ccccc2)cc1)c1cccc(-c2cncc(C(=O)O)n2)c1 [Example 14, 6-(3-((4-Phenethoxyphenyl)carbamoyl)phenyl)pyrazine-2-carboxylic acid]
> 6.00	Cc1ncc(-c2cccc(C(=O)Nc3ccc(OCCc4ccccc4)cc3)c2)cc1C(=O)O [Example 15, 2-Methyl-5-(3-((4-phenethoxyphenyl)carbamoyl)phenyl)nicotinic acid]
> 6.00	Nc1ccc(-c2cccc(C(=O)Nc3ccc(OCCc4ccccc4)cc3)c2)cc1C(=O)O [Example 16, 4-amino-3′-((4-phenethoxyphenyl)carbamoyl)-[1,1′-biphenyl]-3-carboxylic acid]
> 6.00	COc1ncc(-c2cccc(C(=O)Nc3ccc(OCCc4ccccc4)cc3)c2)cc1C(=O)O [Example 17, 2-Methoxy-5-(3-((4-phenethoxyphenyl)carbamoyl)phenyl)nicotinic acid]
> 6.00	O=C(Nc1ccc(OCCc2ccccc2)cc1)c1cccc(-c2cccc(C(=O)O)n2)c1 [Example 18, 6-(3-((4-Phenethoxyphenyl)carbamoyl)phenyl)picolinic acid]
> 6.00	O=C(Nc1ccc(OCCc2ccccc2)cc1)c1cccc(-c2cnc(Cl)c(C(=O)O)c2)c1 [Example 19, 2-Chloro-5-(3-((4-phenethoxyphenyl)carbamoyl)phenyl)nicotinic acid]

pIC50	Structure (SMILES)
> 6.00	O=C(O)c1ccc(-c2cccc(C(=O)Nc3ccc(OCCc4ccccc4)cc3)c2)nc1 [Example 20, 6-(3-((4-Phenethoxyphenyl)carbamoyl)phenyl)nicotinic acid]
5.00 to 6.00	O=C(Nc1ccc(OCCc2ccccc2)cc1)c1cccc(-c2ccnc(C(=O)O)c2)c1 [Example 21, 4-(3-((4-Phenethoxyphenyl)carbamoyl)phenyl)picolinic acid]
> 6.00	O=C(Nc1ccc(OCCc2ccccc2)cc1)c1cccc(-c2nccc(C(=O)O)n2)c1 [Example 22, 2-(3-((4-Phenethoxyphenyl)carbamoyl)phenyl)pyrimidine-4-carboxylic acid]
5.00 to 6.00	O=C(Nc1ccc(OCCc2ccccc2)cc1)c1cccc(-c2ccc(C(=O)O)nc2)c1 [Example 23, 5-(3-((4-Phenethoxyphenyl)carbamoyl)phenyl)picolinic acid]
> 6.00	Cc1ccc(C(=O)O)nc1-c1cccc(C(=O)Nc2ccc(OCCc3ccccc3)cc2)c1 [Example 24, 5-Methyl-6-(3-((4-phenethoxyphenyl)carbamoyl)phenyl)picolinic acid]
5.00 to 6.00	Cc1ncc(C(=O)O)cc1-c1cccc(C(=O)Nc2ccc(OCCc3ccccc3)cc2)c1 [Example 25, 6-Methyl-5-(3-((4-phenethoxyphenyl)carbamoyl)phenyl)nicotinic acid]
5.00 to 6.00	O=C(Nc1ccc(OCCc2ccccc2)cc1)c1cccc(-c2ccncc2C(=O)O)c1 [Example 26, 4-(3-((4-Phenethoxyphenyl)carbamoyl)phenyl)nicotinic acid]
5.00 to 6.00	Cc1c(C(=O)O)cncc1-c1cccc(C(=O)Nc2ccc(OCCc3ccccc3)cc2)c1 [Example 27, 4-Methyl-5-(3-((4-phenethoxyphenyl)carbamoyl)phenyl)nicotinic acid]
> 6.00	O=C(Nc1ccc(OCCc2ccccc2)cc1)c1cccc(-c2cnnc(C(=O)O)c2)c1 [Example 28, 5-(3-((4-Phenethoxyphenyl)carbamoyl)phenyl)pyridazine-3-carboxylic acid]
5.00 to 6.00	NC(=O)c1ncc(-c2cccc(C(=O)Nc3ccc(OCCc4ccccc4)cc3)c2)cc1C(=O)O [Example 29, 2-Carbamoyl-5-(3-((4-phenethoxyphenyl)carbamoyl)phenyl)nicotinic acid]
> 6.00	CS(=O)(=O)Nc1ncc(-c2cccc(C(=O)Nc3ccc(OCCc4ccccc4)cc3)c2)cc1C(=O)O [Example 30, 2-(Methylsulfonamido)-5-(3-((4-phenethoxyphenyl)carbamoyl)phenyl)nicotinic acid]
5.00 to 6.00	Cn1cc(-c2cccc(C(=O)Nc3ccc(OCCc4ccccc4)cc3)c2)cc(C(=O)O)c1=O [Example 31, 1-Methyl-2-oxo-5-(3-((4-phenethoxyphenyl)carbamoyl)phenyl)-1,2-dihydropyridine-3-carboxylic acid]
5.00 to 6.00	O=C(Nc1ccc(OCCc2ccccc2)cc1)c1cccc(-c2cnc(CN3CCOCC3)c(C(=O)O)c2)c1 [Example 32, 2-(Morpholinomethyl)-5-(3-((4-phenethoxyphenyl)carbamoyl)phenyl)nicotinic acid]
> 6.00	O=C(Nc1ccc(OCCc2ccccc2)cc1)c1cccc(-c2cnc(N3CCOCC3)c(C(=O)O)c2)c1 [Example 33, 2-Morpholino-5-(3-((4-phenethoxyphenyl)carbamoyl)phenyl)nicotinic acid]
> 6.00	CNc1ncc(-c2cccc(C(=O)Nc3ccc(OCCc4ccccc4)cc3)c2)cc1C(=O)O [Example 34, 2-(Methylamino)-5-(3-((4-phenethoxyphenyl)carbamoyl)phenyl)nicotinic acid]
> 6.00	CN(C)c1ncc(-c2cccc(C(=O)Nc3ccc(OCCc4ccccc4)cc3)c2)cc1C(=O)O [Example 35, 2-(Dimethylamino)-5-(3-((4-phenethoxyphenyl)carbamoyl)phenyl)nicotinic acid]
> 6.00	O=C(Nc1ccc(OCCc2ccccc2)cc1)c1cccc(-c2cnc(NCCO)c(C(=O)O)c2)c1 [Example 36, 2-((2-Hydroxyethyl)amino)-5-(3-((4-phenethoxyphenyl)carbamoyl)phenyl)nicotinic acid]
> 6.00	COCCNc1ncc(-c2cccc(C(=O)Nc3ccc(OCCc4ccccc4)cc3)c2)cc1C(=O)O [Example 37, 2-((2-Methoxyethyl)amino)-5-(3-((4-phenethoxyphenyl)carbamoyl)phenyl)nicotinic acid]
